Data: US20130060020A1, “Compounds useful for treating neurodegenerative disorders” (Satori Pharmaceuticals, Inc., priority 2011, published 2013)
Like-named read-outs stand apart in the source and are kept apart here.

Tests used:
Aβ-42 = Aβ-42 MSD 3-plex ELISA, conditioned media of 2B7 cells; assay type: cell-based; conditions: Homo sapiens, 5 hours treatment
Protocol: (§1) Assays were conducted to determine the ability of a Compound of Formula I to modulate […], and Aβ-38.
(§2) Plates with capture antibodies were blocked for 1-2 hours at room temperature with 150 μL of the manufactures blocking reagent.
(§3) Cultured 2B7 cells in 96 well plate with 250 μL of media per well until confluent;
(§4) Prepared serial dilutions of compounds in DMSO at 100× the final desired concentration;
(§5) Washed wells with 2B7 cells 1× with 250 μL of media;
(§6) Diluted DMSO stocks 1:100 into media: • Added 250 μL of media containing compounds (1% DMSO) to wells with 2B7 cells for 5 hours at 37° C.
(§7) ELISA Sample Prep: • Diluted conditioned media: 1 part media with 1% DMSO and 1 part blocking buffer; • 150 μL of the 250 μL of conditioned media were used.
(§8) Prepared per manufacturer's protocol (see above). • Seven point standard curve samples were prepared that contained Aβ-42, Aβ-40, and Aβ-38. The highest concentration of Aβ-42 and Aβ-38 was 3,000 pg/mL and the highest concentration of Aβ-40 was 10,000 pg/mL. Subsequent serial dilutions were 1:3 and the final composition of each sample was 1 part blocking buffer and 1 part cell medium containing 1% DMSO.
(§9) Overnight Sample Incubation: • Blocked plates are washed 5× with MSD wash buffer with a plate washer; • […] and blocker G reagent in MSD blocking solution was added; • 25 μL of samples (1 part conditioned media containing 1% DMSO and 1 part MSD blocking buffer) were then added; • Plates were incubated overnight at 4 degrees C. or 2 hours at room temperature.
(§10) Final Wash and Readout: • Washed wells 5× with MSD wash buffer; • Added 150 μL 2×MSD read buffer; • Read with MSD imager.
(§11) Aβ peptide levels for each peptide were calculated from the standard curve using the MSD software provided with the MSD 2400 Imager. Percent vehicle values for each compound dosage were then calculated and fit to a 4 parameter curve generating IC50 values.
(§12) Conditioned media from 2B7 cells (Mayo) was collected after 5 hours of treatment and diluted with 1 volume of Meso Scale Discovery (MSD, Gaithersburg Md.) blocking buffer (1% BSA in MSD wash buffer). For total Aβ measurements, standard-bind, multi-array single spot 96 well MSD ELISA plates were coated with unlabeled 4G8 capture antibody (Covance, Princeton, N.J.) overnight at 4° C. and then blocked with 5% BSA in MSD wash buffer for 1 hour at room temperature with orbital shaking Diluted 2B7 conditioned media were added to the blocked in-house total Aβ MSD plates with SULFO-TAG 6E10 antibody (MSD). For Aβ38, 40 and 42 measurements, diluted 2B7 conditioned media were added to blocked human (6E10) Aβ 3-Plex plates (MSD). Total Aβ and Aβ 3-Plex plates were incubated for 2 hours at room temperature with orbital shaking followed by washing and reading according to the manufacturer's instructions (SECTOR® Imager 2400, MSD). Aβ concentrations were converted to percent vehicle values and used to construct dose response curves which were fitted to […] using GraphPad Prism version 5.00 for Windows, GraphPad Software, San Diego Calif. USA.

Aβ-38 = Aβ-38 MSD 3-plex ELISA, conditioned media of 2B7 cells; assay type: cell-based; conditions: Homo sapiens, 5 hours treatment
Protocol: as §1, §2, §3, §4, §5, §6, §7, §8, §9, §10, §11, §12

Aβ-40 = Aβ-40 MSD 3-plex ELISA, conditioned media of 2B7 cells; assay type: cell-based; conditions: Homo sapiens, 5 hours treatment
Protocol: as §1, §2, §3, §4, §5, §6, §7, §8, §9, §10, §11, §12

Notch processing (NICD) = test: Notch assay: NICD appearance in SUP-T1 cells (western blot); assay type: cell-based; conditions: 18 hours; for Notch % inhib: Notch inhib conc class D (1001-5000 nM); for inhibition at 5 µM: Notch inhib conc class E (>5000 nM)
Protocol: The methods for this assay are broken up into two parts. 1) Growing, dosing and lysing cells 2) Measuring Notch processing (NICD appearance) and data manipulation. Cell viability is also described (CTG). SUP-T1 cells were cultured in T75 flasks in RPMI media (Mediatech 10-041-CV) supplemented with 10% FBS and penicillin/streptomycin at 37° C. in a 5% CO2 atmosphere. One hour prior to drug treatment six well plates were seeded with 1.5 mL of media with cells at a density of 1.0×10^6 cells/mL. The DMSO serial dilutions were diluted 100 fold directly into the media with the cells and incubated for 18 hours at 37° C. After treatment 100 μL of treated cells were assayed for viability with the Promega Cell Titer Glo assay system. […] Lysates were spun at 5,000 RPM for 5 minutes and supernatants were collected and analyzed for NICD levels. […] To account for loading discrepancies each NICD band was normalized to the alpha tubulin band in that well. These values were then normalized to vehicle levels and used to plot a dose response curve. IC50 values were obtained from the dose response curves using a four parameter fit method available within Prism's GraphPad graphing suite. Luminescent data from Promega's Cell Titre Glo assay system were normalized to vehicle controls and plotted with NICD levels.

Aβ 42 = test: % 42 lowering and 40/42 selectivity after dosing in mg/kg (Table 5); assay type: in vivo; conditions: 100 mg/kg
[1] = inflection of dose response curve, read-out: Aβ 42 DR IC50 Inflection
[2] = inflection of dose response curve, read-out: Aβ 38 DR IC50 Inflection
[3] = inflection of dose response curve, read-out: Aβ 40 DR IC50 Inflection

Row | SMILES | IC50 (Aβ-42; [1]) | IC50 (Aβ-42; read-out: Aβ 42 IC50) | IC50 (Aβ-38; [2]) | IC50 (Aβ-38; read-out: Aβ 38 IC50) | IC50 (Aβ-40; [3]) | IC50 (Aβ-40; read-out: Aβ 40 IC50) | Notch % inhib (Notch processing (NICD)) | inhibition at 5 µM (Notch processing (NICD); Homo sapiens) | %42 lowering 10 hr (Aβ 42) | %42 lowering 24 hr (Aβ 42; 24 hr) | 40/42 selective 10 hr (Aβ 42) | IC50 (Notch processing (NICD); Homo sapiens, NICD levels)
1 | CCO[C@@H]([C@H]1C[C@@H](C)[C@H]2[C@H](O1)[C@H](O)[C@@]1(C)[C@@H]3CC[C@H]4C(C)(C)[C@@H](O[C@H]5CN(C6CNC6)CCO5)CC[C@@]45C[C@@]35CC[C@]21C)C(C)(C)O [Compound I-2] | < 100 nM | 100 to 500 nM | 100 to 500 nM | 100 to 500 nM | > 5000 nM | 1000 to 5000 nM | A (A is range from 0-25%) | – | – | – | – | –
2 | CCO[C@@H]([C@H]1C[C@@H](C)[C@H]2[C@H](O1)[C@H](O)[C@@]1(C)[C@@H]3CC[C@H]4C(C)(C)[C@@H](O[C@H]5CN(C6CN(C)C6)CCO5)CC[C@@]45C[C@@]35CC[C@]21C)C(C)(C)O [Compound I-3] | – | – | – | – | – | – | – | 26 to 50% | – | – | – | –
3 | CCO[C@@H]([C@H]1C[C@@H](C)[C@H]2[C@H](O1)[C@H](O)[C@@]1(C)[C@@H]3CC[C@H]4C(C)(C)[C@@H](O[C@H]5CN(C6CN(CC(=O)N(C)C)C6)CCO5)CC[C@@]45C[C@@]35CC[C@]21C)C(C)(C)O [Compound I-7] | 100 to 500 nM | 100 to 500 nM | – | 100 to 500 nM | – | 1000 to 5000 nM | A (A is range from 0-25%) | – | – | – | – | –
4 | CCO[C@@H]([C@H]1C[C@@H](C)[C@H]2[C@H](O1)[C@H](O)[C@@]1(C)[C@@H]3CC[C@H]4C(C)(C)[C@@H](O[C@H]5CN(C6CN(CC(=O)N7CCC7)C6)CCO5)CC[C@@]45C[C@@]35CC[C@]21C)C(C)(C)O [Compound I-8] | 100 to 500 nM | 100 to 500 nM | – | 1000 to 5000 nM | – | 1000 to 5000 nM | A (A is range from 0-25%) | – | – | – | – | –
5 | CCO[C@@H]([C@H]1C[C@@H](C)[C@H]2[C@H](O1)[C@H](O)[C@@]1(C)[C@@H]3CC[C@H]4C(C)(C)[C@@H](O[C@H]5CN(CC6CN(CC(C)(C)O)C6)CCO5)CC[C@@]45C[C@@]35CC[C@]21C)C(C)(C)O [Compound I-24] | – | – | – | – | – | – | – | – | A^a (% 42 lowering of under 15%) | C^a (% 42 lowering of 21-25%) | – | –
6 | CCO[C@@H]([C@H]1C[C@@H](C)[C@H]2[C@H](O1)[C@H](O)[C@@]1(C)[C@@H]3CC[C@H]4C(C)(C)[C@@H](O[C@H]5CN(C6CCN(CCOC)CC6)CCO5)CC[C@@]45C[C@@]35CC[C@]21C)C(C)(C)O [Compound I-28] | 100 to 500 nM | 100 to 500 nM | – | 501 to 1000 nM | – | – | – | – | A^a (% 42 lowering of under 15%) | – | F^a (10-15 fold selectivity) | –
7 | CCO[C@@H]([C@H]1C[C@@H](C)[C@H]2[C@H](O1)[C@H](O)[C@@]1(C)[C@@H]3CC[C@H]4C(C)(C)[C@@H](O[C@H]5CN(C6CCN(C(C)C)CC6)CCO5)CC[C@@]45C[C@@]35CC[C@]21C)C(C)(C)O [Compound I-30] | < 100 nM | < 100 nM | – | 100 to 500 nM | – | 1000 to 5000 nM | – | – | A^a (% 42 lowering of under 15%) | – | G^a (16-20 fold selectivity) | –
8 | CCO[C@@H]([C@H]1C[C@@H](C)[C@H]2[C@H](O1)[C@H](O)[C@@]1(C)[C@@H]3CC[C@H]4C(C)(C)[C@@H](O[C@H]5CN(C6CCN(C7COC7)CC6)CCO5)CC[C@@]45C[C@@]35CC[C@]21C)C(C)(C)O [Compound I-35] | 100 to 500 nM | 100 to 500 nM | – | 501 to 1000 nM | 1000 to 5000 nM | 1000 to 5000 nM | – | – | – | – | – | > 5000 nM
9 | CCO[C@@H]([C@H]1C[C@@H](C)[C@H]2[C@H](O1)[C@H](O)[C@@]1(C)[C@@H]3CC[C@H]4C(C)(C)[C@@H](O[C@H]5CN(CCN6CCC6)CCO5)CC[C@@]45C[C@@]35CC[C@]21C)C(C)(C)O [Compound I-57] | < 100 nM | 100 to 500 nM | – | 100 to 500 nM | 1000 to 5000 nM | 1000 to 5000 nM | – | 0 to 25% | – | – | – | –
10 | CCO[C@@H]([C@H]1C[C@@H](C)[C@H]2[C@H](O1)[C@H](O)[C@@]1(C)[C@@H]3CC[C@H]4C(C)(C)[C@@H](O[C@H]5CN(CCN6CCOCC6)CCO5)CC[C@@]45C[C@@]35CC[C@]21C)C(C)(C)O [Compound I-58] | 100 to 500 nM | 100 to 500 nM | – | 501 to 1000 nM | – | > 5000 nM | – | 26 to 50% | – | – | – | –
11 | CCO[C@@H]([C@H]1C[C@@H](C)[C@H]2[C@H](O1)[C@H](O)[C@@]1(C)[C@@H]3CC[C@H]4C(C)(C)[C@@H](O[C@H]5CN(CCNCCOC)CCO5)CC[C@@]45C[C@@]35CC[C@]21C)C(C)(C)O [Compound I-60] | 100 to 500 nM | 100 to 500 nM | 100 to 500 nM | 100 to 500 nM | 1000 to 5000 nM | 1000 to 5000 nM | A (A is range from 0-25%) | – | – | – | – | –
12 | CCO[C@@H]([C@H]1C[C@@H](C)[C@H]2[C@H](O1)[C@H](O)[C@@]1(C)[C@@H]3CC[C@H]4C(C)(C)[C@@H](O[C@H]5CN(CCN(C)CCOC)CCO5)CC[C@@]45C[C@@]35CC[C@]21C)C(C)(C)O [Compound I-61] | 100 to 500 nM | 100 to 500 nM | – | 501 to 1000 nM | 1000 to 5000 nM | 1000 to 5000 nM | A (A is range from 0-25%) | – | – | – | – | –
13 | CCO[C@@H]([C@H]1C[C@@H](C)[C@H]2[C@H](O1)[C@H](O)[C@@]1(C)[C@@H]3CC[C@H]4C(C)(C)[C@@H](O[C@H]5CN([C@@H](C)CN6CCC6)CCO5)CC[C@@]45C[C@@]35CC[C@]21C)C(C)(C)O [Compound I-76] | 1000 to 5000 nM | – | – | – | – | – | B (B is a range from 26-50%) | – | – | – | – | –
14 | CCO[C@@H]([C@H]1C[C@@H](C)[C@H]2[C@H](O1)[C@H](O)[C@@]1(C)[C@@H]3CC[C@H]4C(C)(C)[C@@H](O[C@H]5CN([C@H](C)CN6CCC6)CCO5)CC[C@@]45C[C@@]35CC[C@]21C)C(C)(C)O [Compound I-77] | – | – | – | – | – | – | A (A is range from 0-25%) | – | – | – | – | –
